The values that follow are results of earlier work, collected in PubChem BioAssay AID1259409 (Chemical Carcinogenesis Research Information System (CCRIS), 2018).

The subject of this series is rodent chemically induced tumor inhibition, incidence and multiplicity. Briefly: CCRIS tumor inhibitor studies. To be noted: Route [Inhibitor]: ORAL, Species: RAT.

Regarding `CCCCCCCCCCCCCCCC(=O)CC(=O)CCCCCCCCCCCCCCC`, the “tumour outcome (control, treated, inhibition, significance)” value is 7/14 (50%), 7/15 (47%), 6%, not significant (Carcinogen: 2,2'-DIHYDROXY-DI-N-PROPYLNITROSAMINE, 53609-64-6, N-ETHYL-N-HYDROXYETHYLNITROSAMINE, 13147-25-6, 3,2'-DIMETHYL-4-AMINO-, Carcinogen: 2,2'-DIHYDROXY-DI-N-PROPYLNITROSAMINE, 53609-64-6, N-ETHYL-N-HYDROXYETHYLNITROSAMINE, 13147-25-6, 3,2'-DIMETHYL-4-AMINO-, Dose [Inhibitor]: 0, 0.2% IN DIET FOR 32 WK BEGINNING 1 WK POST CARCINOGEN TREATMENT (STUDY DURATION: 36 WK), Strain/Sex: F344/MALE, Target Tissue: Type of Lesion: LARGE INTESTINE: ADENOMA, Dose [Carcinogen]: 1000 MG/KG BW DHPN TWICE, 1500 MG/KG BW EHEN TWICE, 75 MG/KG BW 3 TIMES ADMINISTERED OVER FIRST 3 WK, Promoter: NONE USED); 3/14 (21%), 2/15 (13%0, 38%, not significant (Carcinogen: 2,2'-DIHYDROXY-DI-N-PROPYLNITROSAMINE, 53609-64-6, N-ETHYL-N-HYDROXYETHYLNITROSAMINE, 13147-25-6, 3,2'-DIMETHYL-4-AMINO-, Carcinogen: 2,2'-DIHYDROXY-DI-N-PROPYLNITROSAMINE, 53609-64-6, N-ETHYL-N-HYDROXYETHYLNITROSAMINE, 13147-25-6, 3,2'-DIMETHYL-4-AMINO-, Dose [Inhibitor]: 0, 0.2% IN DIET FOR 32 WK BEGINNING 1 WK POST CARCINOGEN TREATMENT (STUDY DURATION: 36 WK), Strain/Sex: F344/MALE, Target Tissue: Type of Lesion: LARGE INTESTINE: CARCINOMA, Dose [Carcinogen]: 1000 MG/KG BW DHPN TWICE, 1500 MG/KG BW EHEN TWICE, 75 MG/KG BW 3 TIMES ADMINISTERED OVER FIRST 3 WK, Promoter: NONE USED); 6/14 (43%), 1/15 (7%), 84%, p<0.05 (Carcinogen: 2,2'-DIHYDROXY-DI-N-PROPYLNITROSAMINE, 53609-64-6, N-ETHYL-N-HYDROXYETHYLNITROSAMINE, 13147-25-6, 3,2'-DIMETHYL-4-AMINO-, Carcinogen: 2,2'-DIHYDROXY-DI-N-PROPYLNITROSAMINE, 53609-64-6, N-ETHYL-N-HYDROXYETHYLNITROSAMINE, 13147-25-6, 3,2'-DIMETHYL-4-AMINO-, Dose [Inhibitor]: 0, 0.2% IN DIET FOR 32 WK BEGINNING 1 WK POST CARCINOGEN TREATMENT (STUDY DURATION: 36 WK), Strain/Sex: F344/MALE, Target Tissue: Type of Lesion: LIVER: HEPATOCELLULAR CARCINOMA, Dose [Carcinogen]: 1000 MG/KG BW DHPN TWICE, 1500 MG/KG BW EHEN TWICE, 75 MG/KG BW 3 TIMES ADMINISTERED OVER FIRST 3 WK, Promoter: NONE USED); 7/14 (50%), 6/15 (40%), 20%, not significant (Carcinogen: 2,2'-DIHYDROXY-DI-N-PROPYLNITROSAMINE, 53609-64-6, N-ETHYL-N-HYDROXYETHYLNITROSAMINE, 13147-25-6, 3,2'-DIMETHYL-4-AMINO-, Carcinogen: 2,2'-DIHYDROXY-DI-N-PROPYLNITROSAMINE, 53609-64-6, N-ETHYL-N-HYDROXYETHYLNITROSAMINE, 13147-25-6, 3,2'-DIMETHYL-4-AMINO-, Dose [Inhibitor]: 0, 0.2% IN DIET FOR 32 WK BEGINNING 1 WK POST CARCINOGEN TREATMENT (STUDY DURATION: 36 WK), Strain/Sex: F344/MALE, Target Tissue: Type of Lesion: LUNG: ADENOMA, Dose [Carcinogen]: 1000 MG/KG BW DHPN TWICE, 1500 MG/KG BW EHEN TWICE, 75 MG/KG BW 3 TIMES ADMINISTERED OVER FIRST 3 WK, Promoter: NONE USED); 1/14 (7%), 3/15 (20%, -186%, not significant (Carcinogen: 2,2'-DIHYDROXY-DI-N-PROPYLNITROSAMINE, 53609-64-6, N-ETHYL-N-HYDROXYETHYLNITROSAMINE, 13147-25-6, 3,2'-DIMETHYL-4-AMINO-, Carcinogen: 2,2'-DIHYDROXY-DI-N-PROPYLNITROSAMINE, 53609-64-6, N-ETHYL-N-HYDROXYETHYLNITROSAMINE, 13147-25-6, 3,2'-DIMETHYL-4-AMINO-, Dose [Inhibitor]: 0, 0.2% IN DIET FOR 32 WK BEGINNING 1 WK POST CARCINOGEN TREATMENT (STUDY DURATION: 36 WK), Strain/Sex: F344/MALE, Target Tissue: Type of Lesion: LUNG: CARCINOMA, Dose [Carcinogen]: 1000 MG/KG BW DHPN TWICE, 1500 MG/KG BW EHEN TWICE, 75 MG/KG BW 3 TIMES ADMINISTERED OVER FIRST 3 WK, Promoter: NONE USED); 3/14 (21%), 3/15 (20%), 5%, not significant (Carcinogen: 2,2'-DIHYDROXY-DI-N-PROPYLNITROSAMINE, 53609-64-6, N-ETHYL-N-HYDROXYETHYLNITROSAMINE, 13147-25-6, 3,2'-DIMETHYL-4-AMINO-, Carcinogen: 2,2'-DIHYDROXY-DI-N-PROPYLNITROSAMINE, 53609-64-6, N-ETHYL-N-HYDROXYETHYLNITROSAMINE, 13147-25-6, 3,2'-DIMETHYL-4-AMINO-, Dose [Inhibitor]: 0, 0.2% IN DIET FOR 32 WK BEGINNING 1 WK POST CARCINOGEN TREATMENT (STUDY DURATION: 36 WK), Strain/Sex: F344/MALE, Target Tissue: Type of Lesion: THYROID GLAND: ADENOMA, Dose [Carcinogen]: 1000 MG/KG BW DHPN TWICE, 1500 MG/KG BW EHEN TWICE, 75 MG/KG BW 3 TIMES ADMINISTERED OVER FIRST 3 WK, Promoter: NONE USED). The “tumour outcome (control, treated, inhibition, significance)” value (Carcinogen: 2,2'-DIHYDROXY-DI-N-PROPYLNITROSAMINE, 53609-64-6, N-ETHYL-N-HYDROXYETHYLNITROSAMINE, 13147-25-6, 3,2'-DIMETHYL-4-AMINO-, Carcinogen: 2,2'-DIHYDROXY-DI-N-PROPYLNITROSAMINE, 53609-64-6, N-ETHYL-N-HYDROXYETHYLNITROSAMINE, 13147-25-6, 3,2'-DIMETHYL-4-AMINO-, Dose [Inhibitor]: 0, 0.2% IN DIET FOR 32 WK BEGINNING 1 WK POST CARCINOGEN TREATMENT (STUDY DURATION: 36 WK), Strain/Sex: F344/MALE, Target Tissue: Type of Lesion: URINARY BLADDER: CARCINOMA, Dose [Carcinogen]: 1000 MG/KG BW DHPN TWICE, 1500 MG/KG BW EHEN TWICE, 75 MG/KG BW 3 TIMES ADMINISTERED OVER FIRST 3 WK, Promoter: NONE USED) is 1/14 (7%), 1/15 (7%), 0%, not significant; the “tumour outcome (control, treated, inhibition, significance)” value (Carcinogen: 2,2'-DIHYDROXY-N-PROPYLNITROSAMINE, 53609-64-6, N-ETHYL-N-HYDROXYETHYL- NITROSAMINE, 13147-25-6, 3,2'-DIMETHYL-4-AMI, Carcinogen: 2,2'-DIHYDROXY-N-PROPYLNITROSAMINE, 53609-64-6, N-ETHYL-N-HYDROXYETHYL- NITROSAMINE, 13147-25-6, 3,2'-DIMETHYL-4-AMI, Dose [Inhibitor]: 0, 0.2% IN DIET BEGINNING 1 WK POST LAST CARCINOGEN DOSE AND CONTINUING FOR 32 WK (STUDY DURATION: 36 WK), Strain/Sex: F344/MALE, Target Tissue: Type of Lesion: LUNG: ADENOMA, Dose [Carcinogen]: 1000 MG/KG IP DHPN 2X , 1500 MG/KG GAV EHEN 2X AND 75 MG/KG SC DMAB 3X GIVEN OVER THE INITIAL 3 WK PERIOD AT 3-4 D INTER, Promoter: NONE USED) is recorded as 7/14 (50%), 6/15 (40%), 20%, not calculated; the “tumour outcome (control, treated, inhibition, significance)” value (Carcinogen: 2-AMINO-1-METHYL-6-PHENYLIMIDAZO[4,5-B]PYRIDINE [105650-23-5], Dose [Inhibitor]: 0.1% IN DIET FOR 54 WK (STUDY DURATION: 54 WK), Strain/Sex: F344/DUCRJ/FEMALE, Target Tissue: Type of Lesion: COLON: ADENOMA OR ADENOCARCINOMA, Dose [Carcinogen]: 0.02% IN DIET FOR 54 WK (STUDY DURATION: 54 WK), Promoter: NONE) was 3/20 (15%), 3/20 (15%), 0%, not significant; the “tumour outcome (control, treated, inhibition, significance)” value (Carcinogen: 2-AMINO-1-METHYL-6-PHENYLIMIDAZO[4,5-B]PYRIDINE [105650-23-5], Dose [Inhibitor]: 0.1% IN DIET FOR 54 WK (STUDY DURATION: 54 WK), Strain/Sex: F344/DUCRJ/FEMALE, Target Tissue: Type of Lesion: MAMMARY GLAND: ADENOMA OR ADENOCARCINOMA, Dose [Carcinogen]: 0.02% IN DIET FOR 54 WK (STUDY DURATION: 54 WK), Promoter: NONE) was 8/20 (40%), 3/20 (15%), 63%, not significant. The outcome (Carcinogen: 2,2'-DIHYDROXY-DI-N-PROPYLNITROSAMINE, 53609-64-6, N-ETHYL-N-HYDROXYETHYLNITROSAMINE, 13147-25-6, 3,2'-DIMETHYL-4-AMINO-, Carcinogen: 2,2'-DIHYDROXY-DI-N-PROPYLNITROSAMINE, 53609-64-6, N-ETHYL-N-HYDROXYETHYLNITROSAMINE, 13147-25-6, 3,2'-DIMETHYL-4-AMINO-, Dose [Inhibitor]: 0, 0.2% IN DIET FOR 32 WK BEGINNING 1 WK POST CARCINOGEN TREATMENT (STUDY DURATION: 36 WK), Strain/Sex: F344/MALE, Target Tissue: Type of Lesion: URINARY BLADDER: PAPILLOMA, Dose [Carcinogen]: 1000 MG/KG BW DHPN TWICE, 1500 MG/KG BW EHEN TWICE, 75 MG/KG BW ADMINISTERED OVER FIRST 3 WK, Promoter: NONE USED) is recorded as 0/14 (0%), 3/15 (20%), -100%, not significant.
